Source: patent US20080125358A1, “Methods for Chk2 inhibitor patient selection” (UNIVERSITY OF MASSACHUSETTS MEDICAL SCHOOL, priority 2006, published 2008)

Key:
[1] = test system: prostate carcinoma PC3 cells; test: Survivin expression after DNA damage, Western blotting; format: cell-based, human; conditions: analyzed after 12 hours
Experimental: (§1) Tumor cell types were exposed to ionizing radiation at doses ranging between 5-10 Gray (Gy) using a ^137Cs source (Gammacell 40), or, alternatively, treated with adriamycin (0-100 nM, Sigma). Cells were harvested after 2-48 h, and analyzed by Western blotting. Antibodies were used having affinities for; i) survivin (1:1000, Novus Biologicals); ii) Chk2 (1:500; Upstate Biotechnology); iii) cytochrome c (1:100; BD Biosciences-Pharmingen); iv) COX-IV (1:500; BD Biosciences-Clontech); v) caspase-3 (1:1000, Cell Signaling Technology); vi) cleaved caspase-3 (1:1000, Cell Signaling Technology); vii) cyclin B1 (1:1000, GNS1, Santa Cruz Biotechnology, Inc.); viii) XIAP (1:1000; Transduction Laboratories); xi) β-actin (1:5000, clone AC-15, A5441; Sigma-Aldrich); and xii) Thr^68-phosphorylated Chk2 (Cell Signaling Technology).

[2] = test system: HCT116 clones #102 and #202; test: Xenograft tumor model, HCT116 clones conditionally expressing Chk2-DN; format: in vivo, mice
Experimental: All examples involving animals were approved by an Institutional Animal Care and Use Committee. […] Approximately 2.5×10^6 cells were injected into each hindlimb flank of 6-8 week old female immunocompromised CB17 SCID/beige mice (i.e., thereby generating 2 tumors/mouse). […] Tumor growth was monitored with a caliper according to the formula ½ [length (mm)]×[width (mm)]^2. At the end of the experiment, tumors were excised, and frozen sections from the various groups were stained with control IgG or a FITC-conjugated antibody to HA, and analyzed by fluorescence microscopy.

[3] = test system: HCT116 cells; test: Colony formation assay in soft agar; format: cell-based; conditions: increasing doses of ionizing radiation
Experimental: Wild-type HCT116 cells were transduced with a replication deficient adenovirus encoding GFP, Chk2-DN, or Thr^34→Ala^34 survivin DN at an m.o.i. of 50. O'Connor et al., “A p34(cdc2) survival checkpoint in cancer” Cancer Cell 2:43-54 (2002). Twenty-four hours later, approximately 3×10^4 cells were treated with or without ionizing radiation, and suspended in 1.5 ml of DMEM plus 10% FBS and 0.35% bactoagar (BD) in 6-well culture plates containing 1.5 ml of 0.75% agarose in growth medium at the bottom layer. Plates were incubated at 37° C. in 5% CO2 for 2 weeks. Colonies were stained with 0.005% crystal violet (Sigma-Aldrich), and counted using a dissecting microscope under high-power field.

[4] = test system: HCT116 cells; test: Caspase activity and cell death by multiparametric flow cytometry after DNA damage; format: cell-based; conditions: p53+/+ or p53-/- HCT116 cells, ionizing radiation
Experimental: For gene silencing by short interference RNA (siRNA), tumor cell types were transfected with control (VIII) or survivin-derived (S4) double stranded (ds) RNA oligonucleotides (50 nM) using oligofectamine (3 μl/well), as previously described. Beltrami et al., “Acute ablation of survivin uncovers p53-dependent mitotic checkpoint functions and control of mitochondrial apoptosis” J Biol Chem 279:2077-84 (2004). Alternatively, cells were transfected with control or SMART® pool siRNA oligonucleotides to Chk1 or Chk2 (Dharmacon) using oligofectamine. A replication-deficient adenovirus expressing Chk2-DN was constructed using the pAd-Easy® system, and used at a multiple of infection (m.o.i.) of 50.
Tumor cell types were treated with or without ionizing radiation, harvested after 24 h, and analyzed for changes in cell cycle distribution by propidium iodide staining and flow cytometry. Alternatively, cells were exposed to ionizing radiation, and analyzed after 24-48 h for propidium iodide staining (red channel) and active caspase-3 activity (CaspaTag®, Intergen®, green channel), by simultaneous multiparametric flow cytometry. Dohi et al., “Mitochondrial survivin inhibits apoptosis and promotes tumorigenesis” J Clin Invest 114:1117-1127 (2004).

[5] = test system: MCF-7 cells; test: Ionizing radiation-induced survivin expression, Western blotting; format: cell-based; conditions: MCF-7 cells transfected
Experimental: as §1
For gene silencing by short interference RNA (siRNA), tumor cell types were transfected with control (VIII) or survivin-derived (S4) double stranded (ds) RNA oligonucleotides (50 nM) using oligofectamine (3 μl/well), as previously described. Beltrami et al., “Acute ablation of survivin uncovers p53-dependent mitotic checkpoint functions and control of mitochondrial apoptosis” J Biol Chem 279:2077-84 (2004). Alternatively, cells were transfected with control or SMART® pool siRNA oligonucleotides to Chk1 or Chk2 (Dharmacon) using oligofectamine. […]

[6] = test system: HCT116 clones #101, #102; test: Conditional induction of apoptosis, propidium iodide staining and flow cytometry; format: cell-based; conditions: doxycycline induction plus adriamycin, adriamycin-sensitive clones
Description: Breast adenocarcinoma MCF-7, colon adenocarcinoma HCT116, or prostate adenocarcinoma PC3 cells were obtained from the American Type Culture Collection (ATCC, Manassas Va.), and maintained in culture as recommended by the supplier. Wild-type, p53^−/−, or Chk2^−/− HCT116 cells were kindly provided by Dr. B. Vogelstein (Johns Hopkins University, Baltimore, Md.). The rat insulinoma cell line INS-1 stably transfected with mitochondrially-targeted survivin fused to GFP was created as previously described. Dohi et al., “Mitochondrial survivin inhibits apoptosis and promotes tumorigenesis” J Clin Invest 114:1117-1127 (2004). Wild-type HCT116 cells were stably transfected to conditionally express a kinase-dead Asp^347 Asn^347 Chk2 dominant-negative (DN) cDNA under the control of a tetracycline (tet)-regulated promoter (tet-on system, Clontech), as described previously. Grossman et al., “Inhibition of melanoma tumor growth in vivo by survivin targeting” Proc. Natl. Acad. Sci. U.S.A. 98:635-640 (2001). Conditional induction of Chk2-DN was monitored after addition of 2 μg/ml doxycycline (dox).
[…] Alternatively, cells were exposed to ionizing radiation, and analyzed after 24-48 h for propidium iodide staining (red channel) and active caspase-3 activity (CaspaTag®, Intergen®, green channel), by simultaneous multiparametric flow cytometry. […]

[7] = biological target: Chk2 (Homo sapiens, UniProt O96017); conditions: expressed and purified Chk2; cited from earlier work
Chk2, sequence (O96017 whole entry): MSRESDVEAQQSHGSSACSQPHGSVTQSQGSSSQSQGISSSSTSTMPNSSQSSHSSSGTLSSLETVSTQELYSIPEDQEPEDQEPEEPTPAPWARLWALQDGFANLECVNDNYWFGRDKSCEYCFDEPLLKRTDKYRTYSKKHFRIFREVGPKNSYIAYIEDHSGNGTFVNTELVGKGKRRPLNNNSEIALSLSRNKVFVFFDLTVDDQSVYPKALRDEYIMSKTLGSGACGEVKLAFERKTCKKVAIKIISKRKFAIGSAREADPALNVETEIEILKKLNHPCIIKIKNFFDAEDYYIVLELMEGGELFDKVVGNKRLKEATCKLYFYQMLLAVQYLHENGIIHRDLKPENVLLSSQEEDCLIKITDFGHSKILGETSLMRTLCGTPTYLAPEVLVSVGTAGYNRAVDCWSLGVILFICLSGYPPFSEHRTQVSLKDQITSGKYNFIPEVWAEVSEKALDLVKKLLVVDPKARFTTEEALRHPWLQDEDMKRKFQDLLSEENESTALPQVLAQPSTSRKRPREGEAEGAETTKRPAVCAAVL

COc1cccc2c1C(=O)c1c(O)c3c(c(O)c1C2=O)C[C@@](O)(C(=O)CO)C[C@@H]3O[C@H]1C[C@H](N)[C@H](O)[C@H](C)O1 [adriamycin]
survivin expression [1]: concentration-dependent increase in survivin | effect on tumor growth ([2]; adriamycin-resistant clone #202, SCID/beige mice): no effect | inhibition of tumor growth ([2]; adriamycin-sensitive clone #102, SCID/beige mice, adriamycin 2 mg/kg): 50-60%

Thr^34→Ala^34 survivin-DN: dominant-negative survivin mutant delivered by replication deficient adenovirus
colony formation in soft agar [3]: nearly completely abolished

Chk2-DN: kinase-dead Asp347 to Asn347 Chk2 dominant-negative mutant, expressed by transfection, adenovirus or tet-on system
induction of caspase activity and cell death [4]: comparable induction of caspase activity and cell death | ionizing radiation-induced survivin expression [5]: abolished the increase in survivin expression | colony formation in soft agar [3]: nearly completely abolished | induction of apoptosis [6]: 2- to 4 fold

CN[C@@H]1C[C@H]2O[C@@](C)([C@@H]1OC)n1c3ccccc3c3c4c(c5c6ccccc6n2c5c31)C(=O)NC4O (stereo partly drawn) [UCN-01]
confirmation of Chk2 potency [7]: could not be confirmed
